From PMC10932305, “RAR Inhibitors Display Photo-Protective and Anti-Inflammatory Effects in A2E Stimulated RPE Cells In Vitro through Non-Specific Modulation of PPAR or RXR Transactivation” (International Journal of Molecular Sciences, 2024)
pKd: −log10 of the molar value.

Biological target: T1, RAR-α (retinoic acid receptor α) (Homo sapiens, UniProt P10276)
T1 construct: gene RARA; human recombinant RARα-LBD expressed in insect cells
T1 sequence (P10276 183-417 limits assumed): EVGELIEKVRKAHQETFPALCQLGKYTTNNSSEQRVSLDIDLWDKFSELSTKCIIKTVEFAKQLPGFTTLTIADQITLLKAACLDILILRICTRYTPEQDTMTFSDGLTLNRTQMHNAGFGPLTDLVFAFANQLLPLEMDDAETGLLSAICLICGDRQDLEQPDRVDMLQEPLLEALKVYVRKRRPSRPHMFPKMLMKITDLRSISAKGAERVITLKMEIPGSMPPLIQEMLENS
Test: radioligand competition binding (Eurofins Cerep)

Compound	pKd
CC1=C(/C=C/C(C)=C/C=C/C(C)=C/c2cc(/C=C/C=C(C)/C=C/C3=C(C)CCCC3(C)C)cc[n+]2CCO)C(C)(C)CCC1 [A2E]	5.85
CC(=C/C=C/C(C)=C/C=C/C=C(C)/C=C/C=C(C)/C=C/C(=O)O)/C=C/C(=O)O [NBX, norbixin]	4.33
